Assay results taken from the supplement of paper PMC10307832.

Experiments:
Experiment in all cases: relative viability (nuclei count vs DMSO), 5 days (fraction); higher = more cells survive
[1] = compound: CN[C@@H]1C[C@H]2O[C@@](C)([C@@H]1OC)n1c3ccccc3c3c4c(c5c6ccccc6n2c5c31)C(=O)NC4 [Staurosporine] + CC(=O)c1c(C)c2cnc(Nc3ccc(N4CCNCC4)cn3)nc2n(C2CCCC2)c1=O [Palbociclib] (partner 0.5 µM)
Summary of the method: (§1)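 Relative viability divides the nuclei count in treated wells by that in vehicle wells. Lung cancer cell lines were seeded in 1536-well plates, dosed by pin tool the next day, and fixed and stained after 5 days in one step with final 0.05% Triton X-100, 1% formaldehyde and 1 ug/ml Hoechst. Dosing was a single drug or a fixed anchor-drug dose plus five library-drug doses (not always all listed) in √10 steps, and values are medians of duplicate plates imaged at 4×.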

[2] = compound: CN[C@@H]1C[C@H]2O[C@@](C)([C@@H]1OC)n1c3ccccc3c3c4c(c5c6ccccc6n2c5c31)C(=O)NC4 [Staurosporine] + CC1(C)CCC(c2ccc(Cl)cc2)=C(CN2CCN(c3ccc(C(=O)NS(=O)(=O)c4ccc(N[C@H](CCN5CCOCC5)CSc5ccccc5)c(S(=O)(=O)C(F)(F)F)c4)cc3)CC2)C1 [Navitoclax] (partner 0.5 µM)
Summary of the method: as §1

[3] = compound: O=c1[nH]cc(F)c(=O)[nH]1 [5-Fluorouracil] + Nc1nc2[nH]cc(CCc3ccc(C(=O)N[C@@H](CCC(=O)O)C(=O)O)cc3)c2c(=O)[nH]1 [Pemetrexed] (partner 0.2 µM)
Summary of the method: as §1

Sulindac + Navitoclax = compound: CC1=C(CC(=O)O)c2cc(F)ccc2/C1=C\c1ccc([S+](C)[O-])cc1 [Sulindac] + CC1(C)CCC(c2ccc(Cl)cc2)=C(CN2CCN(c3ccc(C(=O)NS(=O)(=O)c4ccc(N[C@H](CCN5CCOCC5)CSc5ccccc5)c(S(=O)(=O)C(F)(F)F)c4)cc3)CC2)C1 [Navitoclax] (partner 0.5 µM)
Summary of the method: as §1

Cell Line	relative viability ([1]; first compound 0.005 µM)	relative viability ([1]; first compound 0.01581 µM)	relative viability ([1]; first compound 0.05 µM)	relative viability ([1]; first compound 0.1581 µM)	relative viability ([1]; first compound 0.5 µM)	relative viability ([2]; first compound 0.005 µM)	relative viability ([2]; first compound 0.01581 µM)	relative viability ([2]; first compound 0.05 µM)	relative viability ([2]; first compound 0.1581 µM)	relative viability ([3]; first compound 0.02 µM)	relative viability ([3]; first compound 0.2 µM)	relative viability ([3]; first compound 0.6325 µM)	relative viability ([3]; first compound 2 µM)	relative viability (Sulindac + Navitoclax; first compound 0.08 µM)	relative viability (Sulindac + Navitoclax; first compound 0.253 µM)	relative viability (Sulindac + Navitoclax; first compound 0.8 µM)	relative viability (Sulindac + Navitoclax; first compound 2.53 µM)	relative viability (Sulindac + Navitoclax; first compound 8 µM)	relative viability ([2]; first compound 0.5 µM)
A-427	0.509	0.425	0.346	0.246	0.193	0.943	0.639	0.254	0.204	0.852	0.984	0.866	0.55	1.07	0.94	0.985	0.926	1.04	
PC-14	0.174	0.077	0.0379	0.0411	0.0434	0.901	0.562	0.887	0.0852	0.128	0.14	0.147	0.18	0.933	1.1		1.07	1.14	0.053
LCLC-97TM1	0.238	0.127	0.133	0.141	0.17	0.732	0.283	0.286	0.31	0.146	0.218	0.165	0.176	0.566	0.397	0.386		0.351	0.223
BEN	0.553	0.478	0.397	0.446	0.295	0.0665	0.0904	0.0865	0.0456	0.817	0.837	0.758	0.903	0.0725	0.0631	0.065	0.0775	0.0638	0.042
NCI-H2085	0.442	0.359	0.355	0.301	0.303	0.757	0.583	0.541	0.415	0.886	0.893	0.857	0.599	1.18	1.21	0.979	1.18	1.14	0.366
LC-2-ad	0.537	0.328	0.279	0.168	0.109	0.473	0.202	0.172	0.0798	0.258	0.286	0.282	0.272	0.384	0.495	0.548	0.434	0.564	0.0689
NCI-H1792	0.614	0.577	0.323	0.274	0.26	0.735	0.473	0.197		0.948	0.569	0.215	0.191	0.796	0.682		0.681	0.691	0.136
EPLC-272H	0.3	0.275	0.193	0.157	0.0846	1.34	0.463	0.409	0.163	0.242	0.23	0.269	0.274	1.16		0.828	1.23	1.27	0.19
NCI-H1437	0.27	0.182	0.168	0.116		0.982	0.865	0.695	0.189	0.269	0.271	0.208	0.262	1.28	1.1	1.05	1.1	1.38	0.101
EKVX	0.266	0.143	0.152	0.168	0.0893	0.306	0.222	0.254	0.168	0.305	0.283			0.976	0.969	0.889	1.04	1.07	0.112
NCI-H1651	0.497	0.471	0.318	0.313	0.249	0.897	0.559	0.305	0.112	0.502	0.457	0.3	0.305	1.29	1.3	0.544	1.22	1.38	0.0765
HCC-15	0.527		0.503	0.275	0.229	0.677		0.392	0.282	0.219	0.217	0.21	0.218	0.811	0.795	0.625	0.708	0.798	0.183
NCI-H2347	0.433	0.398	0.331	0.375	0.324	0.854	0.524	0.274	0.284	0.365	0.414	0.424	0.426	0.821	0.803	0.641	0.725	0.862	0.225
NCI-H1915	0.379	0.323	0.237	0.175	0.109	0.829		0.449	0.369	0.395	0.542	0.421	0.419	0.873	0.808	0.78	0.742	0.832	0.26
HCC-366	0.297		0.113	0.0357	0.0204	1.03		0.5	0.0585	0.142	0.145	0.0984	0.123	1.32	1.19	0.817	0.957	1.18	0.0142
NCI-H2087	0.208	0.2	0.0957	0.0793	0.0947	0.744	0.679	0.374	0.133	0.624	0.593	0.609	0.588	0.958	0.939	0.88	0.973	1.1	0.103
